{"source": "patent US7008905B2", "about": "“Method of combating undesired plant growth on cereals” (BASF Aktiengesellschaft, priority 2000, dated 2006)", "format_in_all_cases": "in vivo", "key": {"[1]": {"test_system": "Triticum aestivum variety “Kanzler”", "assay": "Pre-emergence test, selectivity", "conditions": "3 weeks after treatment, rating 0-100 (100=death), Table 4", "experimental": "(§1) The pre-emergence tests involve spraying a liquid formulation of the compound onto the soil in which the seeds of the plant species mentioned above has recently been sown.\n(§2) The soil used in the tests is a prepared horticultural loam. The formulations used in the tests are prepared from solutions of the test compounds in acetone containing 0.4% by weight of an alkylphenol/ethylene oxide condensate available under the trade mark TRITON X-155.\n(§3) These acetone solutions are diluted with water and the resulting formulations applied at dosage levels corresponding to 15 g, 30 g, 60 g, 120 g or 240 g of active material per hectare in a volume equivalent to 900 liters per hectare. In these tests untreated sown soil is used as control. The herbicidal effects of the test compounds are assessed visually three weeks after spraying the soil and are recorded an a 0 to 100 scale. A rating 0 indicates growth as untreated control, a rating 100 indicates death. An increase of 10 unit an the linear scale approximates to a 10% increase in the level of effect. The results of the assessment are set out in Tables 1 to 4."}, "[2]": {"test_system": "Triticum aestivum variety “Monopol”", "assay": "Pre-emergence test, selectivity", "conditions": "3 weeks after treatment, rating 0-100 (100=death), Table 4", "experimental": "as §1, §2, §3"}, "[3]": {"test_system": "Matricaria inodora", "assay": "Pre-emergence test, weed control", "conditions": "3 weeks after treatment, rating 0-100 (100=death), Table 3", "experimental": "as §1, §2\n(§4) In these tests untreated sown soil is used as control. The herbicidal effects of the test compounds are assessed visually three weeks after spraying the soil and are recorded an a 0 to 100 scale. A rating 0 indicates growth as untreated control, a rating 100 indicates death. An increase of 10 unit an the linear scale approximates to a 10% increase in the level of effect. The results of the assessment are set out in Tables 1 to 4."}, "[4]": {"test_system": "Galium aparine", "assay": "Pre-emergence test, weed control", "conditions": "3 weeks after treatment, rating 0-100 (100=death), Table 3", "experimental": "as §1, §2, §4"}, "[5]": {"test_system": "Setaria viridis", "assay": "Pre-emergence test, weed control", "conditions": "3 weeks after treatment, rating 0-100 (100=death), Table 3", "experimental": "as §1, §2, §4"}, "[6]": {"test_system": "Stellaria media", "assay": "Pre-emergence test, weed control", "conditions": "3 weeks after treatment, rating 0-100 (100=death), Table 3", "experimental": "as §1, §2, §4"}, "[7]": {"test_system": "Lolium perenne", "assay": "Pre-emergence test, weed control", "conditions": "3 weeks after treatment, rating 0-100 (100=death), Table 3", "experimental": "as §1, §2, §4"}, "[8]": {"test_system": "Poa annua", "assay": "Pre-emergence test, weed control", "conditions": "3 weeks after treatment, rating 0-100 (100=death), Table 3", "experimental": "as §1, §2, §4"}, "[9]": {"test_system": "Alopecurus myosuroides", "assay": "Pre-emergence test, weed control", "conditions": "3 weeks after treatment, rating 0-100 (100=death), Table 3", "experimental": "as §1, §2, §4"}, "[10]": {"test_system": "Veronica persica", "assay": "Pre-emergence test, weed control", "conditions": "3 weeks after treatment, rating 0-100 (100=death), Table 3", "experimental": "as §1, §2, §4"}, "[11]": {"test_system": "Apera spica-venti", "assay": "Pre-emergence test, weed control", "conditions": "3 weeks after treatment, rating 0-100 (100=death), Table 3", "experimental": "as §1, §2, §4"}, "[12]": {"test_system": "Lamium purpureum", "assay": "Pre-emergence test, weed control", "conditions": "3 weeks after treatment, rating 0-100 (100=death), Table 3", "experimental": "as §1, §2, §4"}, "[13]": {"test_system": "PAPRH", "assay": "Pre-emergence test, weed control", "conditions": "3 weeks after treatment, rating 0-100 (100=death), Table 3", "experimental": "as §1, §2, §3"}, "[14]": {"test_system": "VIOAR", "assay": "Pre-emergence test, weed control", "conditions": "3 weeks after treatment, rating 0-100 (100=death), Table 3", "experimental": "as §1, §2, §3"}, "[15]": {"test_system": "wheat", "assay": "Pre-emergence test, tolerance in wheat", "conditions": "in vivo", "experimental": "as §1, §2, §3"}}}
{"smiles": "Cc1cc(Oc2ccnc(Cl)c2)nc(-c2ccc(C(F)(F)F)cc2)n1", "note": "[REF-6]", "values": [{"measurement": "TRZAWK rating (Selectivity)", "setting": "[1]; 0.060 kg/ha", "result": 10}, {"measurement": "TRZAWK rating (Selectivity)", "setting": "[1]; 0.120 kg/ha", "result": 12}, {"measurement": "TRZAWK rating (Selectivity)", "setting": "[1]; 0.240 kg/ha", "result": 25}, {"measurement": "TRZAWM rating (Selectivity)", "setting": "[2]; 0.030 kg/ha", "result": 1}, {"measurement": "TRZAWM rating (Selectivity)", "setting": "[2]; 0.060 kg/ha", "result": 8}, {"measurement": "TRZAWM rating (Selectivity)", "setting": "[2]; 0.120 kg/ha", "result": 15}, {"measurement": "TRZAWM rating (Selectivity)", "setting": "[2]; 0.240 kg/ha", "result": 25}, {"measurement": "MATIN weed control rating", "setting": "[3]; 0.030 kg/ha", "result": 99}, {"measurement": "MATIN weed control rating", "setting": "[3]; 0.060 kg/ha", "result": 100}, {"measurement": "MATIN weed control rating", "setting": "[3]; 0.120 kg/ha", "result": 100}, {"measurement": "MATIN weed control rating", "setting": "[3]; 0.240 kg/ha", "result": 100}, {"measurement": "GALAP weed control rating", "setting": "[4]; 0.120 kg/ha", "result": 65}, {"measurement": "GALAP weed control rating", "setting": "[4]; 0.240 kg/ha", "result": 97}, {"measurement": "SETVI weed control rating", "setting": "[5]; 0.030 kg/ha", "result": 100}, {"measurement": "SETVI weed control rating", "setting": "[5]; 0.060 kg/ha", "result": 100}, {"measurement": "SETVI weed control rating", "setting": "[5]; 0.120 kg/ha", "result": 100}, {"measurement": "SETVI weed control rating", "setting": "[5]; 0.240 kg/ha", "result": 100}, {"measurement": "STEME weed control rating", "setting": "[6]; 0.030 kg/ha", "result": 97}, {"measurement": "STEME weed control rating", "setting": "[6]; 0.060 kg/ha", "result": 100}, {"measurement": "STEME weed control rating", "setting": "[6]; 0.120 kg/ha", "result": 100}, {"measurement": "STEME weed control rating", "setting": "[6]; 0.240 kg/ha", "result": 100}, {"measurement": "LOLPE weed control rating", "setting": "[7]; 0.030 kg/ha", "result": 95}, {"measurement": "LOLPE weed control rating", "setting": "[7]; 0.060 kg/ha", "result": 100}, {"measurement": "LOLPE weed control rating", "setting": "[7]; 0.120 kg/ha", "result": 100}, {"measurement": "LOLPE weed control rating", "setting": "[7]; 0.240 kg/ha", "result": 100}, {"measurement": "POAAN weed control rating", "setting": "[8]; 0.030 kg/ha", "result": 100}, {"measurement": "POAAN weed control rating", "setting": "[8]; 0.060 kg/ha", "result": 100}, {"measurement": "POAAN weed control rating", "setting": "[8]; 0.120 kg/ha", "result": 100}, {"measurement": "POAAN weed control rating", "setting": "[8]; 0.240 kg/ha", "result": 100}, {"measurement": "ALOMY weed control rating", "setting": "[9]; 0.030 kg/ha", "result": 30}, {"measurement": "ALOMY weed control rating", "setting": "[9]; 0.060 kg/ha", "result": 60}, {"measurement": "ALOMY weed control rating", "setting": "[9]; 0.120 kg/ha", "result": 97}, {"measurement": "ALOMY weed control rating", "setting": "[9]; 0.240 kg/ha", "result": 99}, {"measurement": "VERPE weed control rating", "setting": "[10]; 0.030 kg/ha", "result": 96}, {"measurement": "VERPE weed control rating", "setting": "[10]; 0.060 kg/ha", "result": 100}, {"measurement": "VERPE weed control rating", "setting": "[10]; 0.120 kg/ha", "result": 100}, {"measurement": "VERPE weed control rating", "setting": "[10]; 0.240 kg/ha", "result": 100}, {"measurement": "APESV weed control rating", "setting": "[11]; 0.030 kg/ha", "result": 100}, {"measurement": "APESV weed control rating", "setting": "[11]; 0.060 kg/ha", "result": 100}, {"measurement": "APESV weed control rating", "setting": "[11]; 0.120 kg/ha", "result": 100}, {"measurement": "APESV weed control rating", "setting": "[11]; 0.240 kg/ha", "result": 100}, {"measurement": "LAMPU weed control rating", "setting": "[12]; 0.030 kg/ha", "result": 85}, {"measurement": "LAMPU weed control rating", "setting": "[12]; 0.060 kg/ha", "result": 100}, {"measurement": "LAMPU weed control rating", "setting": "[12]; 0.120 kg/ha", "result": 100}, {"measurement": "LAMPU weed control rating", "setting": "[12]; 0.240 kg/ha", "result": 100}, {"measurement": "PAPRH weed control rating", "setting": "[13]; 0.030 kg/ha", "result": 100}, {"measurement": "PAPRH weed control rating", "setting": "[13]; 0.060 kg/ha", "result": 100}, {"measurement": "PAPRH weed control rating", "setting": "[13]; 0.120 kg/ha", "result": 100}, {"measurement": "PAPRH weed control rating", "setting": "[13]; 0.240 kg/ha", "result": 100}, {"measurement": "VIOAR weed control rating", "setting": "[14]; 0.030 kg/ha", "result": 99}, {"measurement": "VIOAR weed control rating", "setting": "[14]; 0.060 kg/ha", "result": 99}, {"measurement": "VIOAR weed control rating", "setting": "[14]; 0.120 kg/ha", "result": 99}, {"measurement": "VIOAR weed control rating", "setting": "[14]; 0.240 kg/ha", "result": 99}, {"measurement": "maximum tolerated dose in wheat / dose at which sufficiently selective in wheat", "setting": "[15]", "result": 120, "unit": "g/ha"}]}
